Laboratory results taken from patent publication US7531555B2, “Compositions and methods for selective inhibition of nicotine acetylcholine receptors” (University of Florida Research Foundation, Inc., priority 2003, dated 2009).
Where two headings read alike, the source gives them in different places.

How the values were obtained:
Rat α3β2 = target: T1, Rat α3β2 (Rattus norvegicus, UniProt P04757+P12390); test: Voltage clamp of Xenopus oocytes expressing rat α3β2 nAChR; assay type: cell-based
T1 construct: expressed in transfected cells; host or cells: Xenopus laevis oocytes injected with subunit cRNAs; clones from Dr. Jim Boulter (UCLA)
Protocol: (§1) Mature (>9 cm) female Xenopus laevis African frogs (NASCO, Ft. Atkinson, Wis.) were used as a source of oocytes. Prior to surgery, frogs were anesthetized by placing the animal in a 1.5 g/l solution of MS222 (3-aminobenzoic acid ethyl ester) for 30 minutes. Oocytes were removed from an incision made in the abdomen.
(§2) In order to remove the follicular cell layer, harvested oocytes were treated with 1.25 mg/ml collagenase from Worthington Biochemical Corporation (Freehold, N.J.) for 2 hours at room temperature in calcium-free Barth's solution (88 mM NaCl, 10 mM HEPES pH 7.6, 0.33 mM MgSO4, 0.1 mg/ml gentamicin sulfate). Subsequently, stage 5 oocytes were isolated and injected with 50 nl (5-20 ng) each of the appropriate subunit cRNAs. Recordings were made 2 to 15 days after injection.
(§3) Rat neuronal nAChR clones and mouse muscle nAChR cDNA clones were used. The wild-type clones were obtained from Dr. Jim Boulter (UCLA). The rat α6/3 (Dowell et al. J Neurosci, 2003, 23:8445-8452) clone was obtained from Michael McIntosh (University of Utah) and expressed in Xenopus oocytes in combinations with rat β2 and β3. […] The TM2 domain is understood to line the pore of the channel, with alpha helix structure. The 7′ position may actually be directed away from the actual pore lining, but this residue is highly conserved in all of the nAChR. It is valine in all of them except α9 (isoleucine) and β1, where it is alanine. The TM2 mutation in the α6/3 chimera was corrected by using QuickChange (Stratagene) according to their protocols. The corrected α6/3 chimera sequence was confirmed by restriction diagnostics and by automated fluorescent sequencing (University of Florida core facility). The corrected clone was expressed as above in Xenopus oocytes with β2 and β3 and compared to the wild-type α3 co-expressed with β2 and β3.
(§4) After linearization and purification of cloned cDNAs, RNA transcripts were prepared in vitro using the appropriate mMessage mMachine kit from Ambion Inc. (Austin, Tex.).
(§5) Electrophysiology. The majority of experiments were conducted using OpusXpress 6000A (Axon Instruments, Union City Calif.). OpusXpress is an integrated system that provides automated impalement and voltage clamp of up to eight oocytes in parallel. Cells were automatically perfused with bath solution, and agonist solutions were delivered from a 96-well plate. Both the voltage and current electrodes were filled with 3 M KCl. The agonist solutions were applied via disposable tips, which eliminated any possibility of cross-contamination. Drug applications alternated between ACh controls and experimental applications. Flow rates were set at 2 ml/min for experiments with α7 receptors and 4 ml/min for other subtypes. Cells were voltage-clamped at a holding potential of −60 mV. Data were collected at 50 Hz and filtered at 20 Hz. Agonist applications were 12 seconds in duration followed by 181-second washout periods for α7 receptors and 8 seconds with 241-second wash periods for other subtypes. For some experiments, particularly under conditions where residual inhibition precluded making repeated measurements from single cells (see below), manual oocyte recordings were made as previously described (Papke and Papke Br J of Pharmacol, 2002, 137:49-61). In brief, Warner Instruments (Hamden, Conn.) OC-725C oocyte amplifiers were used, and data were acquired with a minidigi or digidata 1200A with pClamp9 software (Axon Instruments). Sampling rates were between 10 and 20 Hz and the data were filtered at 6 Hz. Cells were voltage clamped at a holding potential of −50 mV.
Experimental protocols and data analysis. Each oocyte received two initial control applications of ACh, an experimental drug application (or co-application of ACh and TMPH), and then follow-up control application(s) of ACh. The control ACh concentrations for α1β1γδ, α3β4, α4β2, α3β2, α3β2α5, α3β2β3, α6/3β2β3 α6β4β3 and α7, receptors were 30 μM, 100 μM, 10 μM, 30 μM, 1 μM 100 μM 100 μM 100 μM and 300 μM, respectively. […]

mice = test: Hot-plate test, blockade of nicotine-induced antinociception; assay type: in vivo
Protocol: Animals. Male ICR mice (20-25 g) obtained from Harlan Laboratories (Indianapolis, Ind.) were used throughout the study. Animals were housed in groups of six and had free access to food and water. Adult, male Long-Evans rats (350-460 g), obtained from Harlan (Dublin, Va.), were individually housed in a temperature-controlled (20-22° C.) environment with a 12-hour light-dark cycle (lights on at 7 a.m.). Rats were maintained within the indicated weight range by restricted post-session feeding and had ad libitum water in their home cages. Rats were drug-naive at the beginning of the study. Animals were housed in an AALAC approved facility and the study was approved by the Institutional Animal Care and Use Committee of Virginia Commonwealth University.
2. Hot-plate Test. Mice were placed into a 10 cm wide glass cylinder on a hot plate (Thermojust Apparatus) maintained at 55.0° C. Two control latencies at least 10 minutes apart were determined for each mouse. […] Antinociceptive response was calculated as percent maximum possible effect (% MPE), where % MPE=[(test-control)/(40-control)×100]. The reaction time was scored when the animal jumped or licked its paws. […]
The doses of nicotine used in the different tests represent approximately an ED84 (Effective dose 84%) which were determined from previous works (Damaj et al. Psychopharmacology (Berl), 1995, 117:67-73). […]

Rat α3β4β3 = Rat α3β4β3 (Rattus norvegicus, UniProt P04757+P12391+P12392); test: Voltage clamp of Xenopus oocytes expressing α3β4β3 nAChR; assay type: cell-based; set-up: expressed in transfected cells; host or cells: Xenopus laevis oocytes injected with subunit cRNAs; clones from Dr. Jim Boulter (UCLA)
Protocol: as §1, §2, §3, §4
as §5, with “Cells were voltage clamped at a holding potential of −50 mV.” left out

Rat α3β4β3, sequence (P04757 26-499): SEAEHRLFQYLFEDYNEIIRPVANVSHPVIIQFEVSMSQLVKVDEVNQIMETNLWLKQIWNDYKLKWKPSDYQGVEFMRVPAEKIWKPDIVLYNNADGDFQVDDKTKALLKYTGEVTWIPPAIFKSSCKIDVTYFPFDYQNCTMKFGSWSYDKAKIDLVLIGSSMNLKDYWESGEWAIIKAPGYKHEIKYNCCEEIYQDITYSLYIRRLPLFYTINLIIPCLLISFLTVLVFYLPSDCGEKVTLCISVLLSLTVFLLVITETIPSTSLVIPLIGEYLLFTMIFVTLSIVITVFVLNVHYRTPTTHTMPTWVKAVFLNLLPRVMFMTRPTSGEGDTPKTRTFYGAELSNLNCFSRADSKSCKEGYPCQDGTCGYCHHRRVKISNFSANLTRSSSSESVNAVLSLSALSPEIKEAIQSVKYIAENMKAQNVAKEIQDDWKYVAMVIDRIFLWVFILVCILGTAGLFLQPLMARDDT
Rat α3β4β3, sequence (P12392 21-495): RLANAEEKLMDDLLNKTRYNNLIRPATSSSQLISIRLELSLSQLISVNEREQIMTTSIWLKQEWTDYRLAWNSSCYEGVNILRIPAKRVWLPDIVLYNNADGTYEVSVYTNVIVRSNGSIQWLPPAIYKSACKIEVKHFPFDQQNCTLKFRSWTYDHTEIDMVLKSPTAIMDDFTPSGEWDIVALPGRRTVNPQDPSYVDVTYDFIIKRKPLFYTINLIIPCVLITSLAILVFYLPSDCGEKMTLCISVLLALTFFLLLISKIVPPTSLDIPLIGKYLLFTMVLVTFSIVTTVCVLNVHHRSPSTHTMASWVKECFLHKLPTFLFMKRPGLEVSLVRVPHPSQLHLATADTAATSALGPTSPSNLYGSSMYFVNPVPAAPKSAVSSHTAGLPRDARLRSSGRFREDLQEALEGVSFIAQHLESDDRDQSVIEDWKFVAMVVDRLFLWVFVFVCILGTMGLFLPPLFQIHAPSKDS
Rat α3β4β3, sequence (P12391 31-464): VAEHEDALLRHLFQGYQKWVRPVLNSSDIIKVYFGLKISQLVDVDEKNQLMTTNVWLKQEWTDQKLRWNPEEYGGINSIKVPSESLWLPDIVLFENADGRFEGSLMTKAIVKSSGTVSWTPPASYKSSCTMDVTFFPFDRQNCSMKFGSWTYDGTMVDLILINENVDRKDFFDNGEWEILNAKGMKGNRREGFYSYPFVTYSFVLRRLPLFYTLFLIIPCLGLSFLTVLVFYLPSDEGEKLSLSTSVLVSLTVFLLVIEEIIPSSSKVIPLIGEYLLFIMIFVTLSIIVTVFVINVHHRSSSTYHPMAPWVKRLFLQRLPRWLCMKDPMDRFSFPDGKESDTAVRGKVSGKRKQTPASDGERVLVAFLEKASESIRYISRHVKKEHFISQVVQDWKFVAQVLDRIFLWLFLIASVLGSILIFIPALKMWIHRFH
T1 sequence (P04757 26-499): as the sequence (P04757 26-499) above
T1 sequence (P12390 25-500): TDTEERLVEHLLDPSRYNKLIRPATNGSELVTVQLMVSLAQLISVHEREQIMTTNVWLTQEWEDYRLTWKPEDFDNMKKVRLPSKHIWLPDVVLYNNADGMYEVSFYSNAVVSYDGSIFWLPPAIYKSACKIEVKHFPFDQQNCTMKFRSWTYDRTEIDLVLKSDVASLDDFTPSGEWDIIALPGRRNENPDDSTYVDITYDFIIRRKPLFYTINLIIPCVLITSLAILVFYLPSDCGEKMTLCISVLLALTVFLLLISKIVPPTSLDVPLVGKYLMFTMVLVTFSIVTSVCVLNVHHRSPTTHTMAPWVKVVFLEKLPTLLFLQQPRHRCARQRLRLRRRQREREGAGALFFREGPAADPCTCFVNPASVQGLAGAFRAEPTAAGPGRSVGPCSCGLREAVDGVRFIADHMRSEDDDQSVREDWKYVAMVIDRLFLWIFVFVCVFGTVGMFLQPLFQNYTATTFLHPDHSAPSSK

## CCCCCCC(=O)OC1CC(C)(C)NC(C)(C)C1 [TMPH, 2,2,6,6-tetramethylpiperidin-4-yl heptanoate]
Rat α3β2; 1 μM TMPH alone, after the washout period
  use-independent inhibition, TMPH applied alone: no detectable effect
Rat α3β2; decrease in net charge, 30 μM ACh co-applied with TMPH, read-out: IC50 (area)
  IC50: 440 ± 90 nM
Rat α3β2; decrease in peak current amplitude, 30 μM ACh co-applied with TMPH, read-out: IC50 (peak)
  IC50: 3700 ± 1200 nM
Rat α3β2; following a 5-minute wash
  reversibility of inhibition: virtually no recovery
Rat α3β2; inhibition still present after 5-minute wash, read-out: IC50 (recovery)
  IC50: 230 ± 30 nM
Rat α3β2; ratio
  IC50 net charge/IC50 peak: 0.12
  IC50 recovery/IC50 net charge: 0.52
mice; pretreatment with TMPH 5 mg/kg
  time at which nicotine's effect recovered fully to pre-treatment value, hot-plate: 60 min
mice; s.c. injection, at the indicated doses and times
  antinociception by TMPH itself, hot-plate: did not cause antinociception
Rat α3β4β3; decrease in net charge, 100 μM ACh co-applied with TMPH, read-out: IC50 (area)
  IC50: 1400 ± 200 nM
Rat α3β4β3; decrease in peak current amplitude, 100 μM ACh co-applied with TMPH, read-out: IC50 (peak)
  IC50: 1900 ± 200 nM
Rat α3β4β3; inhibition still present after 5-minute wash, read-out: IC50 (recovery), 2 site model, site with 85% of the fit
  IC50: 30000 nM
Rat α3β4β3; ratio
  IC50 net charge/IC50 peak: 0.74
Rat α3β4β3; ratio, recovery site of IC50 30 μM
  IC50 recovery/IC50 net charge, 2-site model, second value: 21
